In patent US20240124483A1, “Methods for the Treatment of Fibrotic Disease” (SHY Therapeutics, LLC, priority 2021, published 2024):
Like-named read-outs stand apart in the source and are kept apart here.

Key:
[1] = Assessment of Plasma Exposure in DBA/2J mice; type: in vivo, mouse
Method: (§1) Experimental Design: Compound 9 was suspended in 0.5% Hydroxypropyl Methylcellulose (HPMC)/0.1% Tween® 80 to a final concentration of 10 mg/mL. The dosing solutions were prepared prior to the start of the test. Male DBA/2J mice (Jackson Stock No: 000671) were housed in solid bottom cages with standard chow and water ad libitum. Dosing was initiated when animals were 7-8 weeks old. Mice were dosed at a volume of 10 mL/kg by intraperitoneal (IP) injection at 100 mg/kg or vehicle. […] Blood was collected at 15 min, 30 min, 1 h, 2 h, 4 h, 7 h, 16 h, 24 h by cardiac puncture, mixed gently 8 times and put on ice until centrifuged within 30 minutes of collection. The plasma was transferred to a 96-well plate for analysis of test compound levels.
Preparation of Standard Solutions for Calibration of UPLC: Assay: 2 mg/mL in DMSO Stock solutions of reference standard of Compound 9 was freshly prepared. 15 uL of the 2 mg/mL DMSO stock solution of Compound 9 was spiked into a vial and diluted to a final volume of 1 mL (30 ug/mL). 100 uL of the 30 ug/mL solution was mixed with 900 uL methanol (final conc. 3 ug/mL). A calibration curve was obtained from solutions having concentrations of 0.001, 0.003, 0.01, 0.03, 0.1, 0.5 and 1 ug/mL, which were prepared further dilution of the 3 ug/mL solution with methanol. An internal standard of D3-desacetylDFZ (500 ng/mL in methanol) was used. • UPLC Conditions: • Column: Waters UPLC Acquity BEH C18 Column 2.1*50, 1.7 uM • Mobile phase: A: 0.1% formic acid in water; B: 0.1% formic acid in 100% acetonitrile • Gradient:
• Temperature: 50° C. • Run time: 2 min • Injection volume=2 uL • Instrument: Waters TQ-s • Desolvation Temperature: 500° C. • Desolvation gas flow: 1000 L/hr • Capillary Cone voltage: 0.5 • Reference batch: 21-hydroxy emflaza, Compound 9
Preparation of Samples for UPLC: Protein Precipitation Method Using Millipore Hydrophilic Plate (MSRLN04) to Filter the Precipitated Protein • 1) Plasma calibration curve for positively charged compound: all in the filter plate added • a) IS-410000 in acetonitrile (0.1 ug/mL) 200 uL • b) Calibration curve in methanol: 20 uL • c) Methanol: 20 uL • d) Control mouse plasma: 20 uL • 2) Test plasma • a) IS-410000 in acetonitrile (0.1 ug/mL) 200 uL • b) Calibration curve in methanol: 20 uL • c) Test plasma: 20 uL
Placed sample on automatic shaker for at least 5 min
Centrifuged at 2000 rpm (Eppendorf 5804) for 2 min. 2-2.5 uL supernatant were injected onto LCMS system

[2] = Observation for mortality and signs of pain or distress, DBA/2J mice; type: in vivo; settings: male DBA/2J mice, single dose, up to 100 mg/kg
Method: as §1

[3] = Assessment of Plasma Exposure in DBA/2J mice; type: in vivo, mouse; settings: for half-life / AUC(0-t) / Cmax / AUC(0-inf) / Tmax: male, DBA/2J, mouse plasma; for half-life / AUC(0-t) / Cmax / AUC(0-inf): mouse, plasma, po; for AUC(0-inf): read-out: AUCINFobs
[4] = male, DBA/2J, mouse, plasma, ip, 100 mg/kg, Group 5: 100 mg/kg IP, Vehicle 1, mouse plasma
[5] = 25 mg/kg, Group 2: 25 mg/kg PO, Vehicle 1
[6] = 100 mg/kg, Group 3: 100 mg/kg PO, Vehicle 1
[7] = 100 mg/kg, Group 4: 100 mg/kg PO, Vehicle 2

## COCCNc1nc(-c2nccn2C)nc2sc(-c3cccc(OC)c3Cl)c(-c3ccccc3)c12 [Compound 9, 6-(2-Chloro-3-methoxyphenyl)-N-(2-methoxyethyl)-2-(1-methyl-1H-imidazol-2-yl)-5-phenylthieno[2,3-d]pyrimidin-4-amine]
[1]; Group 5 compared to Group 3, 100 mg/kg
  Exposures, intraperitoneal (IP) injection compared to oral dosing: higher
[1]; [4]
  AUC(0-t): 43000 ng·h/mL
  Cmax: 26000 ng/mL
  half-life: 2.96 h
[1]; male, DBA/2J, mouse, plasma, ip, 100 mg/kg, Group 5: 100 mg/kg IP, Vehicle 1, mouse plasma, read-out: AUCINFobs
  AUC(0-inf): 43200 ng·h/mL
[1]; male, DBA/2J, Group 5: 100 mg/kg IP, Vehicle 1, mouse plasma
  Tmax: 0.25 h
[2]
  findings of overt toxicity: No findings of overt toxicity were observed
[3]; Groups 2 and 3: 25 and 100 mg/kg PO, Vehicle 1
  Exposures (AUC), dose dependence: dose proportional
[3]; 25 mg/kg, Group 2: 25 mg/kg PO, Vehicle 1 (0.5% HPMC with 0.1% Tween 80)
  half-life: 2.9 h
[3]; [5]
  AUC(0-t): 3880 ng·h/mL
  Cmax: 703 ng/mL
  AUC(0-inf): 3900 ng·h/mL
[3]; [6]
  AUC(0-t): 16700 ng·h/mL
  Cmax: 1960 ng/mL
  half-life: 2.11 h
  AUC(0-inf): 16700 ng·h/mL
[3]; 100 mg/kg, Group 4: 100 mg/kg PO, Vehicle 2 (Solubilized Lipid)
  half-life: 2.3 h
[3]; [7]
  AUC(0-t): 17100 ng·h/mL
  Cmax: 2090 ng/mL
  AUC(0-inf): 17200 ng·h/mL
[3]; Group 2: 25 mg/kg PO, Vehicle 1
  Tmax: 4 h
[3]; Group 3: 100 mg/kg PO, Vehicle 1
  Tmax: 4 h
[3]; oral dosing (PO), 100 mg/kg
  Exposures (AUC), Vehicle 1 compared to Vehicle 2: similar
